Values of other authors in patent US20080206149A1, “METHOD, DYE AND MEDICAMENT FOR STAINING THE INTERNAL LIMITING MEMBRANE, EPIRETINAL MEMBRANE, THE VITREOUS AND/OR THE CAPSULE OF AN EYE” (LUDWIG-MAXIMILIANS-UNIVERSITAT MUNCHEN, priority 2005, published 2008).

Test system: anterior segment of the eye
Details: animals, dye exposure of seven days, cited from earlier work

## O=S1(=O)OC(c2cc(Br)c(O)c(Br)c2)(c2cc(Br)c(O)c(Br)c2)c2ccccc21 [Bromophenol blue, Bromophenole blue]
Also higher dye concentrations
  clinical examinations: signs of inflammatory responses or toxicity in the anterior segment: did not reveal any signs of inflammatory responses or toxicity
  histological abnormalities following enucleation: no histological abnormalities
